According to patent publication US8541584B2, “3-(1,2,3-triazol-4-yl) pyrrolo [2,3-b] pyridine derivatives” (Merck Patent GmbH, priority 2009, dated 2013):

Key:
[1] = biological target: T1, PDK1 (Homo sapiens, UniProt O15530); assay: Test for the inhibition of PDK1 (384-well flashplate, 33P-ATP); assay type: biochemical; details: His6-PDK1 3.4 nM, 4 μM ATP, 30° C., 60 min
T1 construct: His6 (N)
T1 sequence (O15530 51-556 limits assumed): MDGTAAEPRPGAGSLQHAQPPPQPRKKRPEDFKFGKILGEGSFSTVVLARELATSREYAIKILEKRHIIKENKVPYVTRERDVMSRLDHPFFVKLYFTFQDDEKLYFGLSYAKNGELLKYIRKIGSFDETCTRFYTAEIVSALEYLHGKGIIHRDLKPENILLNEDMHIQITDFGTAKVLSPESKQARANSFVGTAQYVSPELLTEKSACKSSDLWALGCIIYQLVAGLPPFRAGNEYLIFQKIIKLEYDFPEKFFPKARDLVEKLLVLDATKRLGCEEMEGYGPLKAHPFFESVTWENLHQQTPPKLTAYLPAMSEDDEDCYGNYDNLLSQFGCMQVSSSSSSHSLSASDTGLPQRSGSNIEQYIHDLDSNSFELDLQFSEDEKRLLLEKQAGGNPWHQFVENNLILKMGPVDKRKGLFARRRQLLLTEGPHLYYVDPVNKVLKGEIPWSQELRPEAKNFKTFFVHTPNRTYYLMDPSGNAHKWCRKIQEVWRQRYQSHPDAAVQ
Protocol: 4.0 Test for the Inhibition of PDK1
The experimental batches are carried out in a flashplate system with 384 wells/microtitration plate.
In each case, the PDK1 sample His6-PDK1(1-50)(3.4 nM), the PDK1 substrate biotin-bA-bA-[…] (400 nM), 4 μM ATP (with 0.2 μCi of ^33P-ATP/well) and the test substance in 50 μl of conventional experimental solution per well are incubated at 30° C. for 60 min. The test substances are employed in corresponding concentrations (if desired in a dilution series). The control is carried out without test substance. The reaction is stopped using standard methods and washed. The activity of the kinase is measured via the incorporated radioactivity in top count. In order to determine the non-specific kinase reaction (blank value), the experimental batches are carried out in the presence of 100 nM staurosporin.
The radioactivity (decompositions per minute) of the blank value (no use of test substance in the presence of staurosporin) is subtracted from all other radioactivity values. The controls (kinase activity without test substance) are set equal to 100 percent and all other radioactivity values (after subtracting the blank value) are expressed set in relation thereto (for example in % of the control).
IC50 values (50% inhibition) are determined with the aid of statistics programmes, such as, for example, RS1.

[2] = biological target: T2, IKKε (Homo sapiens, UniProt Q14164); assay: IKKε kinase test (384-well flashplate); assay type: biochemical; details: 1 nM IKKε, 10 μM ATP, 30° C., 120 min; read-out: IC50 [IKKepsilon]
T2 sequence (Q14164 1-716): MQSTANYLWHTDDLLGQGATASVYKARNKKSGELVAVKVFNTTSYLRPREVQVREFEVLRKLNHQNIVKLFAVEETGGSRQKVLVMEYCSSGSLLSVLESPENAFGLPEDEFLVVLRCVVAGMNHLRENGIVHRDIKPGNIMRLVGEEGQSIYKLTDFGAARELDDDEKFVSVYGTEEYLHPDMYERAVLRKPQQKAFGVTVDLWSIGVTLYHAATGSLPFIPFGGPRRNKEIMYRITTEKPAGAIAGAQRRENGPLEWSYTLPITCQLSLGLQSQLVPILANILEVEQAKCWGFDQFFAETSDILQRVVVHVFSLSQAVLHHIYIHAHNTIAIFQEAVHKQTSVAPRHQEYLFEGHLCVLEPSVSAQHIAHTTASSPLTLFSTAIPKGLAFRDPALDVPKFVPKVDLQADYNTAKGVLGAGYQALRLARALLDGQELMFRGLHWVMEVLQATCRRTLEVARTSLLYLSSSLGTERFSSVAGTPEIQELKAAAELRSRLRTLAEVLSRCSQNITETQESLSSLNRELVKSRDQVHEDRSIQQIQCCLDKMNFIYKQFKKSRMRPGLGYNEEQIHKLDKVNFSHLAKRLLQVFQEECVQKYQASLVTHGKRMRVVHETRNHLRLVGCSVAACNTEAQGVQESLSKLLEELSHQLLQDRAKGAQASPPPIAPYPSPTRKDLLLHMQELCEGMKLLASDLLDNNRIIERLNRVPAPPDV
Protocol: IKKε—Kinase Test (IKKepsilon)
The kinase assay is performed as 384-well flashplate assay.
1 nM IKKε, 800 nM biotinylated IκBα(19-42) peptide (biotin-C6-C6-[…]) and 10 μM ATP (with 0.3 μCi of ^33P-ATP/well) are incubated in a total volume of 50 μl (10 mM MOPS, 10 mM magnesium acetate, 0.1 mM EGTA, 1 mM dithiothreitol, 0.02% of Brij35, 0.1% of BSA, 0.1% of BioStab, pH 7.5) with or without test substance at 30° C. for 120 min. The reaction is stopped using 25 μl of 200 mM EDTA solution, filtered off with suction after 30 min at room temperature, and the wells are washed 3 times with 100 μl of 0.9% NaCl solution. The non-specific proportion of the kinase reaction (blank) is determined using 3 μM EMD 1126352 (BX-795). Radioactivity is measured in the Topcount. IC50 values are calculated using RS1.

[3] = test system: PDK1 kinase activity (P-T308-PKB) in PC3 cells; assay: Cellular testing of PDK1 kinase inhibitors (Luminex assay, P-T308-PKB in PC3 cells); assay type: cell-based; details: Homo sapiens, PC-3, 0.5 h, serum-free, 30 min with test substance
Protocol: Description of the Method for Cellular Testing of PDK1 Kinase Inhibitors
The cellular assay for determination of the PDK1 kinase activity is performed as Luminex assay in the 96-well format. PC3 cells are sown at 20,000 cells per well in 100 μl of medium (45% of […]/45% of Ham's F12/10% of FCS) and incubated under serum-free conditions on the following day for 30 min with serial dilution of the test substance (7 concentrations). The cells are subsequently lysed using 90 μl of lysis buffer (20 mM Tris/HCl pH 8.0, 150 mM NaCl, 1% of NP40, 10% of glycerol, 1% of phosphatase inhibitor I, 1% of phosphatase inhibitor II, 0.1% of protease inhibitor Cocktail III, 0.01% of benzonase) per well, and the lysates are separated off from insoluble cell constituents by means of centrifugation through a 96-well filter plate (0.65 μm). The lysates are incubated overnight at 4° C. with shaking with Luminex beads to which an anti-total PKB antibody has been coupled. Detection is carried out on the following day by addition of a P-T308-PKB antibody and a species-specific PE-labelled secondary antibody. The determination of P-T308-PKB is carried out by measurement in the Luminex100 instrument by determination of 100 events per cavity in a measurement time of 60 sec. As pharmacological blank, the signals obtained from cells which have been treated with 10 μM staurosporin are subtracted from all other batches. The control value used for maximum phosphorylation of PKB on T308 are the signals from cells which have been treated only with the solvent (0.3% of DMSO). The values of the batches treated with test substance are calculated from this as percent of control, and IC50 values are determined by means of RS1.

| IC50 [1] [nM] | IC50 [2] [nM] | IC50 [3] [nM] | Compound |
| --- | --- | --- | --- |
| 0.5 to 1000 | 0.5 to 1000 | 0.5 to 1000 | Cn1cc(-c2cnc3[nH]cc(-c4cn(Cc5ccccc5F)nn4)c3c2)cn1 [Compound A17, 3-[1-(2-Fluorobenzyl)-1H-1,2,3-triazol-4-yl]-5-(1-methyl-1H-pyrazol-4-yl)-1H-pyrrolo-[2,3-b]pyridine] |
| 0.5 to 1000 | 0.5 to 1000 | 1000 to 10000 | Cn1cc(-c2cnc3[nH]cc(-c4cn(Cc5ccncc5)nn4)c3c2)cn1 [Compound A9, 5-(1-Methyl-1H-pyrazol-4-yl)-3-(1-pyridin-4-ylmethyl-1H-1,2,3-triazol-4-yl)-1H-pyrrolo-[2,3-b]pyridine] |
| 0.5 to 1000 | 0.5 to 1000 | 1000 to 10000 | CC(c1ccccc1C(F)(F)F)n1cc(-c2c[nH]c3ncc(-c4cnn(C)c4)cc23)nn1 (stereo not drawn) [Compound A20, 5-(1-Methyl-1H-pyrazol-4-yl)-3-{1-[1-(2-trifluoromethylphenyl)ethyl]-1H-1,2,3-triazol-4-yl}-1H-pyrrolo[2,3-b]pyridine] |
| 0.5 to 1000 | 0.5 to 1000 | 1000 to 10000 | Cc1cccc(Cn2cc(-c3c[nH]c4ncc(-c5cnn(C)c5)cc34)nn2)c1 [Compound A7, 3-[1-(3-Methylbenzyl)-1H-1,2,3-triazol-4-yl]-5-(1-methyl-1H-pyrazol-4-yl)-1H-pyrrolo[2,3-b]pyridine] |
| 0.5 to 1000 | 1000 to 10000 | 1000 to 10000 | Cn1cc(-c2cnc3[nH]cc(-c4cn(Cc5ccc6ncccc6c5)nn4)c3c2)cn1 [Compound A29, 6-{4-[5-(1-Methyl-1H-pyrazol-4-yl)-1H-pyrrolo[2,3-b]pyridin-3-yl]-1,2,3-triazol-1-ylmethyl}quinoline] |
| 0.5 to 1000 | 0.5 to 1000 | 0.5 to 1000 | Cn1cc(-c2cnc3[nH]cc(-c4cn(Cc5cccc(F)c5F)nn4)c3c2)cn1 [Compound A25, 3-[1-(2,3-Difluorobenzyl)-1H-1,2,3-triazol-4-yl]-5-(1-methyl-1H-pyrazol-4-yl)-1H-pyrrolo-[2,3-b]pyridine] |
